For experiment [1], the system named is MRC5. Description: Cytotoxicity in MRC-5 cells. The class given is functional, cell-based. The conditions noted are these: Homo sapiens.
For experiment [2], the system named is Trypanosoma brucei. Nature of the experiment: In vitro anti protozoal activity against Trypanosoma brucei strain S427 was determined. The class given is functional, organism-based.
Experiment [3] deals with Leishmania infantum. Description: In vitro anti protozoal activity against Leishmania infantum strain MHOM-ET-67/L82 was determined. Format: functional, organism-based.
Experiment [4] has as its system Leishmania amazonensis. Nature of the experiment: In vitro anti protozoal activity against Leishmania amazonensis strain MHOM/ET/L82/LV9 was determined. Format: functional, organism-based.
Experiment [5] concerns Plasmodium falciparum. Nature of the experiment: In vitro anti-protozoal activity against Plasmodium falciparum Ghana strain. Format: functional, organism-based.
Experiment [6] relates to Human T-cell leukemia virus type I. Description: Inhibitory activity against proliferation of HTLV-1 transformed cell lines (HUT-102) at 10 uM. Conditions: Primate T-lymphotropic virus 1, HuT-102. The class given is functional.
Experiment [7] is filed under the species Homo sapiens. Description: Cytotoxicity in macrophages. Format: functional.
Experiment [8] deals with Trypanosoma cruzi. Nature of the experiment: In vitro anti protozoal activity against Trypanosoma cruzi strain Tulahuen CL2 was determined. Format: functional, organism-based.
Experiment [9] has as its system Plasmodium falciparum. Description: In vitro anti-protozoal activity against Plasmodium falciparum W2. The class given is functional, organism-based.

Some results are limits rather than exact numbers.

As to `O=[N+]([O-])c1ccc(/C=C/c2ccc3ccccc3n2)cc1`, the IC50 in experiment [1], in experiment [2], in experiment [3] (Leishmania infantum), in [4], in [5] and in experiment [7] was greater than 32 µM throughout. For the same compound, the 50% inhibitory concentration (IC50) (in general, the concentration at which inhibition is half-maximal) in experiment [8] is 28 µM; in experiment [9], greater than 32 µM. Moreover, in experiment [6], the inhibition (usually the drop in the measured response relative to a control, in per cent) at 10 µM was found to be 0%.

`Br/C=C/c1ccc2ccccc2n1`: the IC50 in [1] was greater than 32 µM; in experiment [2], 1 µM; in experiment [3] (Leishmania infantum) it was 2 µM; in [4], 3 µM; in experiment [5], greater than 32 µM; in experiment [7] it was 13 µM. Also, the IC50 in experiment [8] worked out at 0.15 µM.

`CN(C)c1ccc(/C=C/c2ccc3ccccc3n2)cc1`: the IC50 is greater than 32 µM in experiment [1]; 6 µM in experiment [2]; greater than 32 µM in experiment [3] (Leishmania infantum); 16 µM in experiment [4]; greater than 32 µM in experiment [5]; 16 µM in experiment [7]. Further, the IC50 was 17 µM in experiment [8] and greater than 32 µM in [9]. Further, at 10 µM the inhibition in experiment [6] was 26%.

For the compound `COc1cc(NCc2ccc3ccccc3n2)cc(OC)c1OC`, the IC50 in experiment [1], in experiment [2], in experiment [3] (Leishmania infantum), in experiment [4], in [5] and in experiment [7] was greater than 32 µM each time. In addition, the IC50 in [8] and in experiment [9] was greater than 32 µM throughout. Further, in experiment [6], at 10 µM the inhibition was 0%.

Take `COc1ccc(/C=C/c2ccc3ccccc3n2)cc1OC`: the IC50 in experiment [1] is greater than 32 µM; in [2], 26 µM; in experiment [3] (Leishmania infantum), 22 µM; in [4], greater than 32 µM; in experiment [5], greater than 32 µM; in [7], greater than 32 µM. The IC50 in experiment [8] and in [9] was greater than 32 µM throughout. Also, in experiment [6], the inhibition at 10 µM was 0%.

Turning to `COc1ccc(/C=C/c2ccc3ccccc3n2)c(OC)c1`, the IC50 in experiment [1] was greater than 32 µM; in experiment [2], 18 µM; in experiment [3] (Leishmania infantum), greater than 32 µM; in [4], greater than 32 µM; in [5] it was greater than 32 µM; in [7] it was greater than 32 µM. Besides, the IC50 was greater than 32 µM in experiment [8] and 30 µM in experiment [9]. The compound further displayed an inhibition at 10 µM in [6] of 0%.

On to `O=[N+]([O-])c1ccc(C(O)Cc2ccc3ccccc3n2)cc1` (centres undefined), for which the IC50 was greater than 32 µM in experiment [1]; greater than 32 µM in experiment [2]; greater than 32 µM in experiment [3] (Leishmania infantum); greater than 32 µM in experiment [4]; 15 µM in experiment [5]; greater than 32 µM in experiment [7]. Moreover, the IC50 in [8] was greater than 32 µM; in [9], 6 µM. Further, in experiment [6], the inhibition at 10 µM was 10%.

Turning to `O=C(/C=C/c1ccc2ccccc2n1)N1CCOCC1`, the IC50 in experiment [1] was greater than 32 µM; in experiment [2], greater than 32 µM; in [3] (Leishmania infantum) it was 18 µM; in experiment [4], greater than 32 µM; in experiment [5] it was 12 µM; in [7], greater than 32 µM. Moreover, the figures for the IC50 in experiment [8] and in experiment [9] were 13 µM and 16 µM, respectively. The compound further registered an inhibition at 10 µM in experiment [6] of 0%.

Turning to `O=C(/C=C/c1ccc2ccccc2n1)N1CCCCC1`, the IC50 in experiment [1] is greater than 32 µM; in [2], greater than 32 µM; in experiment [3] (Leishmania infantum) it was 16 µM; in experiment [4], 18 µM; in experiment [5], 15 µM; in [7] it was greater than 32 µM. The IC50 in experiment [8] and in experiment [9] was 17 µM in each case. This compound gave an inhibition at 10 µM in experiment [6] of 0%.

On to `CN1CCN(C(=O)/C=C/c2ccc3ccccc3n2)CC1`, for which the IC50 in experiment [1], in experiment [2], in experiment [3] (Leishmania infantum), in [4], in experiment [5] and in [7] was greater than 32 µM each time. The IC50 in experiment [8] and in experiment [9] was greater than 32 µM each time. The inhibition at 10 µM in experiment [6] worked out at 0%.

As to `O=[N+]([O-])/C=C/c1ccc2ccccc2n1`, the IC50 is 22 µM in experiment [1]; 18 µM in experiment [2]; greater than 8 µM in [3] (Leishmania infantum); greater than 32 µM in experiment [4]; 16 µM in experiment [5]; greater than 32 µM in experiment [7]. The IC50 in experiment [8] came out at 1 µM; in experiment [9] it was 14 µM. Further, testing at 10 µM in experiment [6] gave an inhibition of 76%.

On to `Fc1ccc(/C=C/c2ccc3ccccc3n2)cc1`, for which the half-maximal inhibitory concentration (IC50) in experiment [1], in [2], in [3] (Leishmania infantum), in [4], in experiment [5] and in experiment [7] was greater than 32 µM throughout. Further, the IC50 is 22 µM in experiment [8] and greater than 32 µM in experiment [9]. In [6], the inhibition at 10 µM was found to be 26%.

`CN(C)c1ccc(C(O)Cc2ccc3ccccc3n2)cc1` (centres undefined): the IC50 in [1], in [2], in [3] (Leishmania infantum), in [4], in experiment [5] and in [7] was greater than 32 µM in each case. Further, the IC50 in experiment [8] and in experiment [9] was greater than 32 µM in each case. This compound also came in with an inhibition at 10 µM in experiment [6] of 0%.

With `COc1ccc(C(O)Cc2ccc3ccccc3n2)cc1OC` (centres undefined), the IC50 in [1], in [2], in experiment [3] (Leishmania infantum), in [4], in experiment [5] and in experiment [7] was greater than 32 µM each time. In addition, the IC50 in experiment [8] and in experiment [9] was greater than 32 µM in each case. In addition, at 10 µM the inhibition in [6] was 0%.

With `OC(Cc1ccc2ccccc2n1)c1ccc(F)cc1` (centres undefined), the IC50 in experiment [1] was greater than 32 µM; in [2] it was greater than 32 µM; in experiment [3] (Leishmania infantum), greater than 32 µM; in experiment [4] it was greater than 32 µM; in experiment [5] it was 4 µM; in experiment [7] it was greater than 32 µM. In addition, the IC50 is greater than 32 µM in experiment [8] and 1 µM in experiment [9]. This compound had an inhibition at 10 µM in experiment [6] of 0%.

With `Fc1ccccc1NCc1ccc2ccccc2n1`, the IC50 in [1], in experiment [2], in [3] (Leishmania infantum), in experiment [4], in experiment [5] and in [7] was greater than 32 µM in each case. The IC50 in experiment [8] and in experiment [9] was greater than 32 µM each time. Moreover, the inhibition at 10 µM in [6] was 0%.

As for `OC(Cc1ccc2ccccc2n1)c1ccco1` (centres undefined), the IC50 in experiment [1], in experiment [2], in [3] (Leishmania infantum), in experiment [4], in [5] and in experiment [7] was greater than 32 µM in each case. The 50% inhibitory concentration (IC50) in [8] and in experiment [9] was greater than 32 µM each time. The same compound registered an inhibition at 10 µM in experiment [6] of 0%.

Turning to `O=C/C=C/c1ccc2ccccc2n1`, the IC50 in experiment [1] was determined as 16 µM; in experiment [2], 19 µM; in experiment [3] (Leishmania infantum) it was 2 µM; in experiment [4], 4 µM; in [5], 31 µM; in experiment [7], 9 µM. Moreover, in experiment [8], the IC50 was found to be 5 µM. In addition, testing at 10 µM in [6] gave an inhibition of 34%.

Regarding `CCCCCCCCCCCCCCCCOP(=O)([O-])OCC[N+](C)(C)C` [MILTEFOSINE], the results for the IC50 in [4] and in [7] were 3.12 µM and 12.5 µM, respectively.

`CC1CS(=O)(=O)CCN1/N=C/c1ccc([N+](=O)[O-])o1` (centres undefined) [NIFURTIMOX] came in with a half-inhibitory concentration (IC50) in [8] of 0.45 µM.

In [2], `Cc1ccc(C(=O)Nc2ccc(S(=O)(=O)O)c3cc(S(=O)(=O)O)cc(S(=O)(=O)O)c23)cc1NC(=O)c1cccc(NC(=O)Nc2cccc(C(=O)Nc3cc(C(=O)Nc4ccc(S(=O)(=O)O)c5cc(S(=O)(=O)O)cc(S(=O)(=O)O)c45)ccc3C)c2)c1` [SURAMIN] displayed an IC50 of 0.09 µM.

In turn, MEGLUMINE ANTIMONATE had an IC50 in experiment [3] of 7.15 µM.

These data come from ChEMBL document CHEMBL1149205, “Biological evaluation of substituted quinolines” (Bioorg Med Chem Lett, 2004).
